This is an account of results in publication PMC10641818, “Development of First-in-Class Dual Sirt2/HDAC6 Inhibitors as Molecular Tools for Dual Inhibition of Tubulin Deacetylation” (Journal of Medicinal Chemistry, 2023).

For one assay, the target named is Sirt2 (demyristoylation) (Homo sapiens, UniProt Q8IXJ6). The assay is described as follows: Continuous Sirt2 demyristoylation assay (myristoylated peptide substrate). The following applies: peptide-based myristoylated substrate, triplicate; read-out: Sirt2-mediated demyristoylation IC50. The class given is biochemical. The method, then:
As a second method to confirm the inhibition of Sirt2-mediated demyristoylation by 33, we used a continuous Sirt2 demyristoylation assay as reported by Zessin et al.[48] In brief, this assay was performed in a black 384-well fluorescence plate in a total volume of 40 μL of Sirt assay buffer (20 mM Tris-HCl, 150 mM NaCl, 5 mg/mL MgCl2, 2 mg/mL BSA, pH 7.8). Dilution series of the inhibitor was done in DMSO. A total of 2 μL of the inhibitor dilutions were incubated with 14 μL of the peptide substrate, referred to as F4 in Zessin et al.[48] (final concentration 40 nM) and 14 μL of Sirt2 solution (final concentration 1 nM) for 5 min at room temperature. In addition to the inhibitor-containing samples, a sample without inhibitors was measured as a positive control, and a sample without enzymes was measured as a negative control. The DMSO concentration was set to 5% (v/v). The reaction was started by the addition of 10 μL of NAD^+ (final concentration 500 μM). The product formation was monitored by the change in fluorescence intensity, and the reaction rate represented the activity. Fluorescence readout was performed with a BMG Fluostar Omega plate reader at following wavelengths: Excitation wavelength: λEx = 485 ± 10 nm, emission wavelength: λEm = 530 ± 10 nm. Inhibition was calculated using the following equation: [drawing 1] […]

The next assay has as its system α-tubulin acetylation. Description: Immunofluorescence microscopy of α-tubulin acetylation in PC-3M-luc cells. As to conditions: 20 μM, 5 h. Type of assay: cell-based. The method, then: The detection of acetylation levels of α-tubulin by immunofluorescence was performed as previously described.[47] In brief, PC-3M-luc cells (25 000 cells per well) were plated in Ibidi 8-well slides (Ibidi, catalogue no. 80826) and incubated overnight at 37 °C, 5% CO2. Next, cells were treated with 20 μM of inhibitor. After 5 h, the medium was removed and the cells washed with PBS and fixed with 4% PFA for 8–10 min at ambient temperature. Cells were rinsed three times with PBS and lysed with extraction buffer (PBS, 0.1% Triton X-100) for 3–5 min at ambient temperature. After another washing step with PBS, blocking buffer (PBS, 0.1% Triton, 5% FCS) was added for at least 10 min before incubating with monoclonal acetylated α-tubulin antibody (1:500, Sigma-Aldrich, catalogue no. T6793) in blocking buffer overnight at 4 °C. […] The cells were rinsed two times with blocking buffer and once with PBS and DAPI in mounting medium ([…] HardSet Antifade Mounting Medium with DAPI, no. H-1500-10) diluted 1:50 in PBS was added and it was incubated for 10 min in the dark. Confocal microscopy was performed with a Leica SP8 confocal microscope equipped with a 40×/1.40 oil objective (Leica Microsystems) keeping the laser settings of the images constant to allow direct comparison of signal intensities between images.

The subject of assay [1] is PC-3M-luc prostate cancer cells. The assay is described as follows: Cell viability assay (MTS) PC-3M-luc. The following applies: 72 h, @ 50 μM. Type of assay: cell-based. Here is the method:
(§1) Cell viability assays of HGC27 and PC-3M-luc cells were performed by using the Celltiter 96 Aqueous Nonradioactive Proliferation Assay (Promega). Cells were seeded in sterile 96-well plates at a density of 2000 cells per well and incubated overnight at 37 °C and 5% CO2. Compound or vehicle were added to a final concentration of 0.5% DMSO. […] Cells were seeded at densities of 10^4 cells/well for W1 cells or 2 × 10^3 cells/well for MCF-7 cells. Tests were performed in 96-well plates (Sarstedt AG, Nümbrecht, Germany). After incubation overnight, cells were supplemented with half logarithmic dilution series of the indicated compounds and DPBS (PAN Biotech GmbH, Aidenbach, Germany) as control. Then 72 h after addition of cytostatic treatment, the MTT solution (20 μL, 5 mg/mL) was added into the wells for 1 h at 37 °C and 5% CO2 until formazan crystals were formed. The supernatant was removed, and the cells were dissolved in 200 μL of DMSO. Absorption was analyzed at 570 nm, with background subtraction at 690 nm, using a plate reader (Thermomultiscan EX, Thermo, Schwerte, Germany). Cell viability was then determined by nonlinear regression and a four-parameter logistic equation with variable hill slope. […] The significance of the difference of the effects of 33 and 4 + 57 was determined by using an unpaired, two-tailed t test with Welch’s correction, implemented in GraphPad Prism 8.4.0 (GraphPad, USA). Statistical significance was accepted if p < 0.05. Asterisks indicate *p < 0.05, **p < 0.01.

Assay [2] relates to MCF-7 breast cancer cells. Description: Cell viability assay (MTT) MCF-7. The class given is cell-based. The following applies: 72 h, @ 50 μM. Here is the method:
as §1

Assay [3] relates to HGC27 gastric carcinoma cells. Description: Cell viability assay (MTS) HGC27. Type of assay: cell-based. The following applies: 72 h, @ 50 μM. Here is the method:
as §1

Assay [4] concerns histone H3 acetylation (marker of HDAC1-3 inhibition). The assay is described as follows: Western blot on histone H3 hyperacetylation in MCF-7 cells. Type of assay: cell-based. The following applies: 24 h, 10 µM. Here is the method: Western blots on histone H3 hyperacetylation in MCF-7 cells were performed according to a previously published protocol.[72] In brief, MCF-7 were centrifuged (450g, 4 min, 22 °C) and lysed with cell extraction buffer (Thermo Fisher), supplemented with 0.1 mM PMSF, Halt Protease Inhibitor (Thermo Fisher), and Natriumorthovanadat (Thermo Fisher). Precast gels with a polymerization degree of 4–15% were used (Mini-PROTEAN TGX Stain-Free; Bio-Rad Laboratories GmbH, Munich, Germany). Proteins were transferred to Trans-Blot Turbo-PVDF membrane (Bio-Rad). The membrane was blocked with skimmed milk powder in Tris-buffered saline-Tween 20 (with 0.2% Tween 20) for 60 min, followed by three washing cycles of 10 min using Tris-buffered saline-Tween 20. Afterward, membranes were incubated with primary antibodies for ac.-Histon H3 (Cell Signal, rabbit) and GAPDH (Gene Tex, Irvine, USA, mouse) for a total of 60 min at room temperature and then incubated at 4 °C overnight. […] After rinsing of the secondary antibody, membranes were detected using ClarityECL Western Blotting Substrate (Bio-Rad). For quantitative determination, the StainFree technique was employed (Bio-Rad), as well as normalization, against the housekeeping protein GAPDH, which allows the imaging of whole lysates in SDS-PAGE before blotting and normalization against the total protein. […]
Background: In western blotting, separated proteins are transferred to a membrane and probed.

The test system of the next assay is W1 ovarian cancer cells. The assay is described as follows: Cell viability assay (MTT) W1. Type of assay: cell-based. As to conditions: 72 h, @ 50 μM. The method, then: as §1

Sirt2 (demyristoylation), sequence (Q8IXJ6 whole entry): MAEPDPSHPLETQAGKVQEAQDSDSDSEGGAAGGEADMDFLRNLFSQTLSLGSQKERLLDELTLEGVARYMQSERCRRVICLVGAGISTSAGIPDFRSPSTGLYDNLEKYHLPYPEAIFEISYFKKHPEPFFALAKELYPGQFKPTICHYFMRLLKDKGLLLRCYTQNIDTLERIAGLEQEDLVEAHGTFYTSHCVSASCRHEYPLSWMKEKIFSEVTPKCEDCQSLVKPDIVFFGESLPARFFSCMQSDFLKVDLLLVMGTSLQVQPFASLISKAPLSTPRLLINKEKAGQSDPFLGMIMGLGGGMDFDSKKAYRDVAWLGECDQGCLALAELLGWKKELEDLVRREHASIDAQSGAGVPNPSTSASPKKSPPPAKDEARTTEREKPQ

As to `COCCn1cc(COc2cccc(Cc3cnc(NC(=O)CSc4nc(C)cc(C)n4)s3)c2)nn1` [Compound 5, SirReal1.2, reference compound], the IC50 on Sirt2 (demyristoylation) was 480 ± 120 nM. Further, in the assay on α-tubulin acetylation, the “α-tubulin acetylation (immunofluorescence)” value was “very minor”.

As to `Cc1cc(C)nc(SCC(=O)Nc2ncc(Cc3cccc(OCc4cn(CCCCC(=O)NCc5ccc(C(=O)NO)cc5)nn4)c3)s2)n1` [Compound 32, 4-((5-(4-((3-((2-(2-((4,6-Dimethylpyrimidin-2-yl)thio)acetamido)thiazol-5-yl)methyl)phenoxy)methyl)-1H-1,2,3-triazol-1-yl)pentanamido)methyl)-N-hydroxybenzamide], in assay [1], the PC-3M-luc cellular effect result is listed as “ni ^b (ni = no inhibition (cellular effect <20% @ 50 μM))”. Moreover, the MCF-7 cellular effect result in assay [2] is recorded as “ni ^b (ni = no inhibition (cellular effect <20% @ 50 μM))”. The HGC27 cellular effect result in assay [3] is recorded as “ni ^b (ni = no inhibition (cellular effect <20% @ 50 μM))”. The “Histone H3 hyperacetylation (cellular class I HDAC off-target inhibition)” value in assay [4] is on record as “no significant off-target inhibition of class I”. Besides, in the assay with W1 ovarian cancer cells, the W1 cellular effect entry is reported as “ni ^b (ni = no inhibition (cellular effect <20% @ 50 μM))”.

Broadly, the IC50 is the concentration that inhibits the measured activity by half.
